# ChEMBL document CHEMBL3608278 (J Med Chem, 2015)
# How the values were obtained:
# [1] = target: T1, Potassium voltage-gated channel subfamily A member 3 (Homo sapiens, UniProt P22001); assay type: cell-based, CHO-K1
# [2] = target: T1, Potassium voltage-gated channel subfamily A member 3; test: cell-based; set-up: species or system Blood
# [3] = target: T1, Potassium voltage-gated channel subfamily A member 3; set-up: species or system Blood
# T1 sequence (P22001 whole entry): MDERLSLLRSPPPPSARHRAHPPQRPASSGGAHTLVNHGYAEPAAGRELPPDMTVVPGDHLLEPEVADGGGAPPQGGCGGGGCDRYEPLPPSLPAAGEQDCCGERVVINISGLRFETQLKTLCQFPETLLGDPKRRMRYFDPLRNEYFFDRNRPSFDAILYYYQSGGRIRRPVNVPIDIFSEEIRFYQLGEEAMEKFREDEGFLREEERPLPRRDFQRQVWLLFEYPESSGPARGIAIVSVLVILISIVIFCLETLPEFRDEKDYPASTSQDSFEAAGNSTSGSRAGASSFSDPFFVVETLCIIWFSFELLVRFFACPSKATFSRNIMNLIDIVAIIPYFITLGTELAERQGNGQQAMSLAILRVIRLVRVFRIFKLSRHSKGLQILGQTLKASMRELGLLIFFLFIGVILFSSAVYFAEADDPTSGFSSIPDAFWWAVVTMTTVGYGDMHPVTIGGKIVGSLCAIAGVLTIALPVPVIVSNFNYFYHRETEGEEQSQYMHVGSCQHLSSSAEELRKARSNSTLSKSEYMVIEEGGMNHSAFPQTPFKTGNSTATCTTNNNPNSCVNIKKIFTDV
Structure (SMILES),IC50 [1],IC50 [2],IC50 [3]
CC[C@H](C)[C@@H]1NC(=O)[C@@H](NC(=O)[C@H](CCC(=O)O)NC(=O)[C@@H](N)CCCNC(=N)N)CSSC[C@@H](C(=O)O)NC(=O)[C@H]([C@@H](C)O)NC(=O)CNC(=O)[C@@H]2CSSC[C@@H]3NC(=O)[C@H](CCC(N)=O)NC(=O)[C@H](Cc4ccccc4)NC(=O)[C@H](C)NC(=O)[C@H]([C@@H](C)O)NC(=O)[C@H](CSSC[C@H](NC(=O)[C@H](Cc4ccccc4)NC(=O)[C@H](CO)NC(=O)[C@H](CC(C)C)NC(=O)[C@H](CCCNC(=N)N)NC(=O)[C@H](Cc4ccc(O)cc4)NC(=O)[C@H](CCCCN)NC(=O)[C@H](CCSC)NC(=O)[C@H](CO)NC(=O)[C@H](Cc4cnc[nH]4)NC(=O)[C@H](CCCCN)NC3=O)C(=O)N[C@@H](CCCNC(=N)N)C(=O)N[C@@H](CCCCN)C(=O)N[C@@H]([C@@H](C)O)C(=O)N2)NC(=O)[C@H](CCCNC(=N)N)NC(=O)[C@H](CO)NC(=O)[C@H](CCCCN)NC(=O)[C@@H]2CCCN2C(=O)[C@H]([C@@H](C)CC)NC(=O)[C@H]([C@@H](C)O)NC(=O)[C@H](CC(=O)O)NC1=O,0.095 nM,0.029 nM,0.039 nM
CC[C@H](C)[C@@H]1NC(=O)[C@H]([C@@H](C)O)NC(=O)[C@H](CC(=O)O)NC(=O)[C@H](CCC(=O)O)NC(=O)[C@@H](NC(=O)[C@H](CO)NC(=O)[C@@H](N)CCCNC(=N)N)CSSC[C@@H](C(=O)O)NC(=O)[C@H]([C@@H](C)O)NC(=O)CNC(=O)[C@@H]2CSSC[C@@H]3NC(=O)[C@H](CCC(N)=O)NC(=O)[C@H](Cc4ccccc4)NC(=O)[C@H](C)NC(=O)[C@H]([C@@H](C)O)NC(=O)[C@H](CSSC[C@H](NC(=O)[C@H](Cc4ccccc4)NC(=O)[C@H](CO)NC(=O)[C@H](CC(C)C)NC(=O)[C@H](CCCNC(=N)N)NC(=O)[C@H](Cc4ccc(O)cc4)NC(=O)[C@H](CCCCN)NC(=O)[C@H](CCSC)NC(=O)[C@H](CO)NC(=O)[C@H](Cc4cnc[nH]4)NC(=O)[C@H](CCCCN)NC3=O)C(=O)N[C@@H](CCCNC(=N)N)C(=O)N[C@@H](CCCCN)C(=O)N[C@@H]([C@@H](C)O)C(=O)N2)NC(=O)[C@H](CCCNC(=N)N)NC(=O)[C@H](CO)NC(=O)[C@H](CCCCN)NC(=O)[C@@H]2CCCN2C1=O,0.075 nM,0.031 nM,0.05 nM
CC[C@H](C)[C@@H]1NC(=O)[C@@H](NC(=O)[C@H](CO)NC(=O)[C@@H](N)CCCNC(=N)N)CSSC[C@@H](C(=O)O)NC(=O)[C@H]([C@@H](C)O)NC(=O)CNC(=O)[C@@H]2CSSC[C@@H]3NC(=O)[C@H](CCC(N)=O)NC(=O)[C@H](Cc4ccccc4)NC(=O)[C@H](C)NC(=O)[C@H]([C@@H](C)O)NC(=O)[C@H](CSSC[C@H](NC(=O)[C@H](Cc4ccccc4)NC(=O)[C@H](CO)NC(=O)[C@H](CC(C)C)NC(=O)[C@H](CCCNC(=N)N)NC(=O)[C@H](Cc4ccc(O)cc4)NC(=O)[C@H](CCCCN)NC(=O)[C@H](CCSC)NC(=O)[C@H](CO)NC(=O)[C@H](Cc4cnc[nH]4)NC(=O)[C@H](CCCCN)NC3=O)C(=O)N[C@@H](CCCNC(=N)N)C(=O)N[C@@H](CCCCN)C(=O)N[C@@H]([C@@H](C)O)C(=O)N2)NC(=O)[C@H](CCCNC(=N)N)NC(=O)[C@H](CO)NC(=O)[C@H](CCCCN)NC(=O)[C@@H]2CCCN2C(=O)[C@H]([C@@H](C)CC)NC(=O)[C@H]([C@@H](C)O)NC(=O)[C@H](CCC(=O)O)NC1=O,> 3.33 nM,16.9 nM,> 24.6 nM
CC[C@H](C)[C@@H]1NC(=O)[C@@H](NC(=O)[C@H](CO)NC(=O)[C@@H](N)CCCNC(=N)N)CSSC[C@@H](C(=O)O)NC(=O)[C@H]([C@@H](C)O)NC(=O)CNC(=O)[C@@H]2CSSC[C@@H]3NC(=O)[C@H](CCC(N)=O)NC(=O)[C@H](Cc4ccccc4)NC(=O)[C@H](C)NC(=O)[C@H]([C@@H](C)O)NC(=O)[C@H](CSSC[C@H](NC(=O)[C@H](Cc4ccccc4)NC(=O)[C@H](CO)NC(=O)[C@H](CC(C)C)NC(=O)[C@H](CCCNC(=N)N)NC(=O)[C@H](Cc4ccc(O)cc4)NC(=O)[C@H](CCCCN)NC(=O)[C@H](CCSC)NC(=O)[C@H](CO)NC(=O)[C@H](Cc4cnc[nH]4)NC(=O)[C@H](CCCCN)NC3=O)C(=O)N[C@@H](CCCNC(=N)N)C(=O)N[C@@H](CCCCN)C(=O)N[C@@H]([C@@H](C)O)C(=O)N2)NC(=O)[C@H](CCCNC(=N)N)NC(=O)[C@H](CO)NC(=O)[C@H](CCCCN)NC(=O)[C@@H]2CCCN2C(=O)[C@H](CCC(=O)O)NC(=O)[C@H]([C@@H](C)O)NC(=O)[C@H](CC(=O)O)NC1=O,1.31 nM,5 nM,19.5 nM
CC[C@H](C)[C@@H]1NC(=O)[C@@H](NC(=O)[C@H](CO)NC(=O)[C@@H](N)CCCNC(=N)N)CSSC[C@@H](C(=O)O)NC(=O)[C@H]([C@@H](C)O)NC(=O)CNC(=O)[C@@H]2CSSC[C@@H]3NC(=O)[C@H](CCC(N)=O)NC(=O)[C@H](Cc4ccccc4)NC(=O)[C@H](C)NC(=O)[C@H]([C@@H](C)O)NC(=O)[C@H](CSSC[C@H](NC(=O)[C@H](Cc4ccccc4)NC(=O)[C@H](CO)NC(=O)[C@H](CC(C)C)NC(=O)[C@H](CCCNC(=N)N)NC(=O)[C@H](Cc4ccc(O)cc4)NC(=O)[C@H](CCCCN)NC(=O)[C@H](CCSC)NC(=O)[C@H](CO)NC(=O)[C@H](Cc4cnc[nH]4)NC(=O)[C@H](CCCCN)NC3=O)C(=O)N[C@@H](CCCNC(=N)N)C(=O)N[C@@H](CCCCN)C(=O)N[C@@H]([C@@H](C)O)C(=O)N2)NC(=O)[C@H](CCCNC(=N)N)NC(=O)[C@H](CO)NC(=O)[C@H](CCC(=O)O)NC(=O)[C@@H]2CCCN2C(=O)[C@H]([C@@H](C)CC)NC(=O)[C@H]([C@@H](C)O)NC(=O)[C@H](CC(=O)O)NC1=O,0.146 nM,0.037 nM,0.056 nM
CC[C@H](C)[C@@H]1NC(=O)[C@@H](NC(=O)[C@H](CO)NC(=O)[C@@H](N)CCCNC(=N)N)CSSC[C@@H](C(=O)O)NC(=O)[C@H]([C@@H](C)O)NC(=O)CNC(=O)[C@@H]2CSSC[C@@H]3NC(=O)[C@H](CCC(N)=O)NC(=O)[C@H](Cc4ccccc4)NC(=O)[C@H](C)NC(=O)[C@H]([C@@H](C)O)NC(=O)[C@H](CSSC[C@H](NC(=O)[C@H](Cc4ccccc4)NC(=O)[C@H](CO)NC(=O)[C@H](CC(C)C)NC(=O)[C@H](CCCNC(=N)N)NC(=O)[C@H](Cc4ccc(O)cc4)NC(=O)[C@H](CCCCN)NC(=O)[C@H](CCSC)NC(=O)[C@H](CO)NC(=O)[C@H](Cc4cnc[nH]4)NC(=O)[C@H](CCCCN)NC3=O)C(=O)N[C@@H](CCCNC(=N)N)C(=O)N[C@@H](CCCCN)C(=O)N[C@@H]([C@@H](C)O)C(=O)N2)NC(=O)[C@H](CCC(=O)O)NC(=O)[C@H](CO)NC(=O)[C@H](CCCCN)NC(=O)[C@@H]2CCCN2C(=O)[C@H]([C@@H](C)CC)NC(=O)[C@H]([C@@H](C)O)NC(=O)[C@H](CC(=O)O)NC1=O,0.983 nM,1.32 nM,4.54 nM
CC[C@H](C)[C@@H]1NC(=O)[C@@H](NC(=O)[C@H](CO)NC(=O)[C@@H](N)CCCNC(=N)N)CSSC[C@@H](C(=O)O)NC(=O)[C@H]([C@@H](C)O)NC(=O)CNC(=O)[C@@H]2CSSC[C@@H]3NC(=O)[C@H](CCC(N)=O)NC(=O)[C@H](Cc4ccccc4)NC(=O)[C@H](C)NC(=O)[C@H](CCC(=O)O)NC(=O)[C@H](CSSC[C@H](NC(=O)[C@H](Cc4ccccc4)NC(=O)[C@H](CO)NC(=O)[C@H](CC(C)C)NC(=O)[C@H](CCCNC(=N)N)NC(=O)[C@H](Cc4ccc(O)cc4)NC(=O)[C@H](CCCCN)NC(=O)[C@H](CCSC)NC(=O)[C@H](CO)NC(=O)[C@H](Cc4cnc[nH]4)NC(=O)[C@H](CCCCN)NC3=O)C(=O)N[C@@H](CCCNC(=N)N)C(=O)N[C@@H](CCCCN)C(=O)N[C@@H]([C@@H](C)O)C(=O)N2)NC(=O)[C@H](CCCNC(=N)N)NC(=O)[C@H](CO)NC(=O)[C@H](CCCCN)NC(=O)[C@@H]2CCCN2C(=O)[C@H]([C@@H](C)CC)NC(=O)[C@H]([C@@H](C)O)NC(=O)[C@H](CC(=O)O)NC1=O,0.152 nM,0.785 nM,1.1 nM
CC[C@H](C)[C@@H]1NC(=O)[C@@H](NC(=O)[C@H](CO)NC(=O)[C@@H](N)CCCNC(=N)N)CSSC[C@@H](C(=O)O)NC(=O)[C@H]([C@@H](C)O)NC(=O)CNC(=O)[C@@H]2CSSC[C@@H]3NC(=O)[C@H](CCC(=O)O)NC(=O)[C@H](Cc4ccccc4)NC(=O)[C@H](C)NC(=O)[C@H]([C@@H](C)O)NC(=O)[C@H](CSSC[C@H](NC(=O)[C@H](Cc4ccccc4)NC(=O)[C@H](CO)NC(=O)[C@H](CC(C)C)NC(=O)[C@H](CCCNC(=N)N)NC(=O)[C@H](Cc4ccc(O)cc4)NC(=O)[C@H](CCCCN)NC(=O)[C@H](CCSC)NC(=O)[C@H](CO)NC(=O)[C@H](Cc4cnc[nH]4)NC(=O)[C@H](CCCCN)NC3=O)C(=O)N[C@@H](CCCNC(=N)N)C(=O)N[C@@H](CCCCN)C(=O)N[C@@H]([C@@H](C)O)C(=O)N2)NC(=O)[C@H](CCCNC(=N)N)NC(=O)[C@H](CO)NC(=O)[C@H](CCCCN)NC(=O)[C@@H]2CCCN2C(=O)[C@H]([C@@H](C)CC)NC(=O)[C@H]([C@@H](C)O)NC(=O)[C@H](CC(=O)O)NC1=O,0.197 nM,0.352 nM,0.373 nM
CC[C@H](C)[C@@H]1NC(=O)[C@@H](NC(=O)[C@H](CO)NC(=O)[C@@H](N)CCCNC(=N)N)CSSC[C@@H](C(=O)O)NC(=O)[C@H]([C@@H](C)O)NC(=O)CNC(=O)[C@@H]2CSSC[C@@H]3NC(=O)[C@H](CCC(N)=O)NC(=O)[C@H](Cc4ccccc4)NC(=O)[C@H](C)NC(=O)[C@H]([C@@H](C)O)NC(=O)[C@H](CSSC[C@H](NC(=O)[C@H](Cc4ccccc4)NC(=O)[C@H](CO)NC(=O)[C@H](CC(C)C)NC(=O)[C@H](CCCNC(=N)N)NC(=O)[C@H](Cc4ccc(O)cc4)NC(=O)[C@H](CCCCN)NC(=O)[C@H](CCSC)NC(=O)[C@H](CO)NC(=O)[C@H](Cc4cnc[nH]4)NC(=O)[C@H](CCC(=O)O)NC3=O)C(=O)N[C@@H](CCCNC(=N)N)C(=O)N[C@@H](CCCCN)C(=O)N[C@@H]([C@@H](C)O)C(=O)N2)NC(=O)[C@H](CCCNC(=N)N)NC(=O)[C@H](CO)NC(=O)[C@H](CCCCN)NC(=O)[C@@H]2CCCN2C(=O)[C@H]([C@@H](C)CC)NC(=O)[C@H]([C@@H](C)O)NC(=O)[C@H](CC(=O)O)NC1=O,0.12 nM,0.047 nM,0.083 nM
